# EP1131089B1, “STABLE AQUEOUS INSULIN PREPARATIONS WITHOUT PHENOL AND CRESOL” (Novo Nordisk A/S, priority 1998, dated 2000)
# Columns and labels:
# human insulin [1] = test: Chemical stability at 37 °C, covalent insulin polymer determined by size exclusion chromatography; type: physicochemical; settings: stabiliser equimolar to insulin, 0.5 Zn2+/insulin, NaCl 15 mM, glycylglycine 7 mM, tween 20 0.01 %, pH 7.5
# Procedure: (§1) 27.5 ml of a 21 mM insulin stock solution was made by dissolving 3.707 g zinc free human insulin in 14 ml water and adding 2888 µl of 0.1 M ZnCl2 and 7 ml water before adjusting pH to 7.5 by 0.2 M NaOH and finally adding water to 27.5 ml, calculating the specific volume of insulin as 0.7 µl/mg. The stock solution was filtrated. A preparation of 3.5 ml 15 mM insulin was then made by adding 23 µl 2.3 M stabiliser in ethanol, 49 µl 0.5 M glycylglycine and 35 µl 1 % Tween 20 and water to 3.5 ml. The solution was thereafter diluted with medium containing sodium chloride 15 mM, glycylglycine 7 mM, Tween 20 0.01 %, pH 7.5 to 12, 9, 6, 3 and 0.6 mM insulin and stored at 5 °C for visual inspection. The reference solution was made by the same way but without adding a stabiliser. The chemical stability of the insulin solutions were followed at 37 °C for two concentrations, 3 and 15 mM, by determination of covalent insulin polymer by size exclusion chromatography. The analysis of insulin polymer was performed on Waters PROTEIN PAK 125 (250 x 8 mm) with an eluent containing 2.5 M acetic acid, 4 mM L-arginine and 20 %(V/V) acetonitrile at a flow rate of 1 ml/min. and ambient temperature. Detection was performed with a tunable absorbance detector (Waters 486) at 276 nm. Injection volume were […] for 3 and 15 mM insulin solutions, respectively.
# (§2) 3.26 g human insulin (0.4 equivalent Zn^2+ per insulin) was dispersed in water in 18 ml water on icebath and added 490 µl 0.5 M glycylglycine and 1628 µl sodium hydroxide (3.1 equivalent) and stirred slowly overnight at 5 °C. 613 µl 0.1 M zinc chloride (0.1 equivalent of zinc) was then added the solution, pH adjusted to 7.5 by 410 µl 1 M hydrochloric acid (0.8 equivalent of chloride) and the volume adjusted to 25 ml by water. Finally the stock solution of 21 mM insulin was filtrated. 3.57 ml of the stock solution was added 50 µl 1 % tween 20, 750 µl 0.1 M stabiliser and 630 µl water to obtain 5 ml 15 mM insulin formulation. Finally the preparation was diluted with medium containing sodium chloride, glycylglycine and detergent to obtain 12, 9, 6, and 3 mM of human insulin and stored at 5 °C for visual inspection. The chemical stability of 3 and 15 mM insulin solutions were followed at 37 °C by determination of covalent insulin polymer by size exclusion chromatography.
# human insulin [2] = test: Physical stability of insulin solution with stabiliser, visual inspection for precipitation on storage at 5 °C; type: physicochemical; settings: 0.5 Zn2+/insulin, NaCl 15 mM, glycylglycine 7 mM, tween 20 0.01 %, pH 7.5
# Procedure: as §1, §2
# [3] = example 1, stabiliser equimolar to insulin
# [4] = example 2, stabiliser equimolar to insulin
SMILES,"Chemical stability at 37°C (% polymer / week) Insulin solution of 3 mM (human insulin [1]; example 1, 3 mM insulin) [% polymer / week]","Chemical stability at 37°C (% polymer / week) Insulin solution of 15 mM (human insulin [1]; example 1, 15 mM insulin) [% polymer / week]","Physical stability of solution at 4 weeks and 5°C Maximal insulin concentration at which the solution was without precipitation up to 15 mM (3, 6, 9, 12, 15mM) (human insulin [2]; [3]) [mM]","Chemical stability at 37°C (% polymer / week) Insulin solution of 3 mM (human insulin [1]; example 2, 3 mM insulin) [% polymer / week]","Chemical stability at 37°C (% polymer / week) Insulin solution of 15 mM (human insulin [1]; example 2, 15 mM insulin) [% polymer / week]","Physical stability of solution at 4 weeks and 5°C Maximal insulin concentration at which the solution was without precipitation up to 15 mM (3, 6, 9, 12, 15mM) (human insulin [2]; [4]) [mM]"
CC1(C)[C@H]2CC[C@](C)(C2)[C@H]1O [(+)-fenchol],0.50,0.97,15,–,–,–
CC1(C)[C@H]2CC[C@H](CO)[C@@H]1C2 [(-)-trans-myrtanol],0.64,0.95,15,–,–,–
"CC1(C)C2CCC1(C)C(O)C2 (single isomer, unassigned; (+)) [(+)-borneol]",0.47,0.61,9,–,–,–
Oc1ccccc1 [phenol],0.37,0.39,15,0.32,0.29,15

# Now from value to compound:
"Chemical stability at 37°C (% polymer / week) Insulin solution of 3 mM (human insulin [1]; example 1, 3 mM insulin) [% polymer / week]","Chemical stability at 37°C (% polymer / week) Insulin solution of 15 mM (human insulin [1]; example 1, 15 mM insulin) [% polymer / week]","Physical stability of solution at 4 weeks and 5°C Maximal insulin concentration at which the solution was without precipitation up to 15 mM (3, 6, 9, 12, 15mM) (human insulin [2]; [3]) [mM]","Chemical stability at 37°C (% polymer / week) Insulin solution of 3 mM (human insulin [1]; example 2, 3 mM insulin) [% polymer / week]","Chemical stability at 37°C (% polymer / week) Insulin solution of 15 mM (human insulin [1]; example 2, 15 mM insulin) [% polymer / week]","Physical stability of solution at 4 weeks and 5°C Maximal insulin concentration at which the solution was without precipitation up to 15 mM (3, 6, 9, 12, 15mM) (human insulin [2]; [4]) [mM]",SMILES
0.49,0.61,12,–,–,–,"CC1C(O)CC2CC1C2(C)C (single isomer, unassigned; (+)) [(+)-isopinocampheol]"
–,–,–,0.59,0.77,9,Nc1ncnc2nc[nH]c12 [adenine]
0.53,0.56,15,–,–,–,"CC1C(O)CC2CC1C2(C)C (single isomer, unassigned; (-)) [(-)-isopinocampheol]"
–,–,–,0.58,0.71,15,c1ncc2[nH]cnc2n1 [purine]
0.43,0.47,9,–,–,–,"CC1(C)C2CCC1(C)C(O)C2 (single isomer, unassigned; (-)) [(-)-borneol]"
